Measurements reported in article PMC11979273, “A phase I study to evaluate the safety, tolerability, and pharmacokinetics of HEC113995PA·H2O, a novel dual-acting serotonergic antidepressant, in healthy subjects” (Frontiers in Pharmacology, 2025).

Experiment: Food effect study, safety (adverse events)
Format: in vivo, human
Description: A total of 18 healthy subjects of both genders, were assigned randomly to three sequences A, B, and C (n = 6). All subjects received HEC113995PA·H2O tablets, with a total of 3 times administered during the trial, once per cycle, and a washout period of ≥11 days. In sequence A, the order of administration was as follows: fasting, after a standard meal, and after a high-fat meal. In sequence B, the order of administration was after a standard meal, after a high-fat meal, and fasting. Sequence C subjects were administered in the following order: after a high-fat meal, fasting, and after a standard meal. During the fed periods, a single oral dose of HEC113995PA·H2O tablet 20 mg was administered within 30 min after consumption of a standard meal (total calories: approximately 600 kcal), or a high-fat, high-calorie meal (total calories: approximately 800 kcal–1,000 kcal, which derives about 150, 250, and 500–600 kcal from protein, carbohydrate, and fat, respectively). Serial blood samples were collected before and after each cycle for PK determination of plasma concentration and the evaluation of pharmacokinetic characteristics. Safety and tolerability were assessed on days 4 and 28.
Safety indicators were assessed through adverse events (AE), clinical laboratory tests (including blood routine, blood biochemistry, urine routine), vital signs monitoring (ear temperature), pulse, respiration and blood pressure in a sitting position), 12-lead electrocardiogram (ECG) and physical examinations. Adverse events (AE) and serious adverse events (SAE) were evaluated following the criteria outlined in National Cancer Institute Common Terminology Criteria for Adverse Events (NCI-CTCAE) version 5.0.
Any adverse events that occurred in all subjects during the clinical trial were recorded with the following details: AE name, occurrence time, end time, severity, whether it was classified as a SAE, severity criteria (if applicable), treatment measures and outcomes, actions taken on investigational drug due to the AE, and the causal relationship between the AE and administrated drug, etc. Each AE was recorded separately.

[1] = FE trial 20 mg, 1 case, after a high-fat meal
[2] = FE trial 20 mg, after a high-fat meal
[3] = FE trial 20 mg, after a high-fat meal, 5 incidents
[4] = FE trial 20 mg, after a standard meal
[5] = FE trial 20 mg, fasting conditions
[6] = FE trial 20 mg, overall, 2 cases

Structure (SMILES): Cc1nc(-c2cnc(N3CCN(CCCc4c[nH]c5ccc(C#N)cc45)CC3)nc2)sc1C(N)=O [HEC113995PA·H2O]
- safety and tolerability (20 mg fasting, after a standard meal and after a high-fat meal): good safety and tolerability
- TRAE incidence: elevated blood bilirubin [1]: 5.6%
- TRAE incidence: elevated conjugated bilirubin [1]: 5.6%
- TRAE: elevated blood triglycerides [2]: 1 case
- TRAE: elevated blood uric acid [2]: 2 cases
- TRAE: nausea [2]: 1 case
- TEAE incidence [3]: 27.8%
- TRAE incidence [3]: 27.8%
- TRAE: elevated blood uric acid [4]: 2 cases
- TRAE: nausea [4]: 1 case
- TRAE incidence (FE trial 20 mg, after a standard meal, 3 incidents): 16.7%
- TEAE incidence (FE trial 20 mg, after a standard meal, 4 incidents): 22.2%
- TEAE incidents (FE trial 20 mg, fasting administration): 6 incidents
- TRAE incidence (FE trial 20 mg, fasting administration, 4 incidents): 22.2%
- TRAE: elevated blood triglycerides [5]: 1 case
- TRAE: elevated blood uric acid [5]: 1 case
- TRAE: nausea [5]: 2 cases
- TRAE incidence: elevated blood triglycerides [6]: 11.1%
- TRAE incidence: nausea [6]: 11.1%
- TRAE incidence: elevated blood uric acid (FE trial 20 mg, overall, 4 cases): 22.2%
- incidence of subjects experiencing TRAEs (FE trial 20 mg, overall, 9 subjects, 13 TRAEs): 50.0%
- incidence of subjects experiencing TEAE (FE trial 20 mg, overall, 11 subjects, 20 incidents): 61.1%
- severity of all TRAEs (FE trial 20 mg, resolved spontaneously without treatment): Grade 1
